Target: T1, GAL4-PPARγ chimeric receptor (ligand-binding domain of human PPARγ) (Homo sapiens, UniProt P37231)
T1 construct: expressed in transfected cells; host or cells: COS-7 (monkey kidney)
Assay: Measurement of PPARγ activation effect/modulator activity (GAL4-PPARγ luciferase reporter assay in COS-7 cells)
Type: cell-based
Settings: for Emax: COS-7, maximum luciferase activity, rosiglitazone positive control = 100%, DMSO control = 0%; for EC50: COS-7 cells transfected with pM-PPARγ and pFR-Luc, concentration giving Emax/2
Method: A test was carried out according to the reporter assay method with reference to a report by Kliewer et al. (Journal of Biological Chemistry, 1995, Vol. 270 (22), p. 12953-12956) as a method for measuring the ability of a compound to activate PPARγ (hereinafter PPARγ activation effect/modulator activity). Commercially available reagents and kits were used according to the attached instructions. The details will be shown below.
The ligand-binding domain of human PPARγ (corresponding to about 300 amino acids at the carboxy end) was bound to the DNA-binding domain of the yeast transcription factor GAL4 (corresponding to 147 amino acids at the amino end) with reference to the report by Kliewer et al. to prepare a gene expressing a GAL4-PPARγ receptor.
The plasmid pM-PPARγ obtained by the above operation includes the nucleotide sequence represented by SEQ ID NO: 4 of the Sequence Listing and encodes an amino acid sequence represented by SEQ ID NO: 5 of the Sequence Listing containing amino acids 1 to 147 of the yeast transcription factor GAL4 at the amino end and containing amino acids 175 to 475 of human PPARγ and a stop codon at the carboxy end. The plasmid is a gene that can express a GAL4-PPARγ chimeric receptor in mammalian cells.
The previously acquired plasmid pM-PPARγ and the plasmid pFR-Luc purchased from Stratagene Cloning Systems, Inc. were dissolved in deionised water at a concentration of 1 mg/mL each.
The monkey kidney-derived cell line COS-7 (American Type Culture Collection CRL-1651) was seeded into a 75 cm^2 culture flask and cultured using Dulbecco's modified Eagle's medium containing 10% fetal bovine serum (hereinafter medium) under the conditions of 37° C. and 5% carbon dioxide gas until an approximately 80% confluent state was obtained.
COS-7 cells were transfected with 4.8 micrograms per flask of the plasmid pM-PPARγ and 19.2 μg per flask of the plasmid pFR-Luc using Lipofectamine 2000 transfection reagent (manufactured by Invitrogen Corporation), and the cells were cultured overnight.
On the following day, the cells were harvested by trypsin treatment, suspended in 75 mL of phenol red-free Dulbecco's modified Eagle's medium containing 10% fetal bovine serum, seeded into a white 96-well plate (manufactured by Costar) using the medium in a volume of 95 μL per well, and cultured overnight.
The test compound was dissolved in dimethyl sulfoxide at a concentration of 4 mM. The solution was serially diluted 3.3-fold with dimethyl sulfoxide to prepare solutions of the compound at concentrations up to 400 nM. Dimethyl sulfoxide was prepared for the control group. Rosiglitazone dissolved in dimethyl sulfoxide at a concentration of 4 mM was prepared for the positive control group. They were diluted 20-fold with the medium, and 5 μL of the dilution was added to the wells in which the cells were grown. The concentrations of the test compound treating the cells ranged from 10 μM to 1 nM. After the addition, the cells were cultured overnight.
On the following day, the medium was removed, and Luc Lite (manufactured by PerkinElmer Inc.) was prepared according to the attached document and added at 50 microliters per well. The plate with cells in the Luc Lite was stirred for about 30 minutes. The amount of luminescence in each well was measured as luciferase activity using Analyst (Molecular Devices) for 0.5 second. A dose-dependent curve was drawn.

T1 sequence (P37231 with tags, fused parts or gaps): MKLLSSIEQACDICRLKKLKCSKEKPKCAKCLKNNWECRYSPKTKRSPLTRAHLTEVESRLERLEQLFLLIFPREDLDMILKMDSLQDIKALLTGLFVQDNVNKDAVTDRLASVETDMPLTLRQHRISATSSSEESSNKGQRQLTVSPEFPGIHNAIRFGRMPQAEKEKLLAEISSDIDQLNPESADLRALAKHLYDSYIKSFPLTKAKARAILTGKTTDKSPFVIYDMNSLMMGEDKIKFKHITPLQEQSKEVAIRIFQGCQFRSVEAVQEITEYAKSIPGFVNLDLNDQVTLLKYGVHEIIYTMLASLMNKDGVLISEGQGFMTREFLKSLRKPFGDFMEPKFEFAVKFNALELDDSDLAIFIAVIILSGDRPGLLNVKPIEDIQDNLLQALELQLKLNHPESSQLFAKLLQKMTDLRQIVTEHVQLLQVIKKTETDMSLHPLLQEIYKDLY

Emax [%]	EC50 [pM]	Compound
100	100000	Cc1cc(F)cnc1Oc1ccc2nc(COc3cccc(C(=O)O)c3)n(C)c2c1 [Reference Example 8, 3-({6-[(5-Fluoro-3-methylpyridin-2-yl)oxy]-1-methyl-1H-benzimidazol-2-yl}methoxy)benzoic acid]
74	43000	Cc1cnc(Oc2ccc3nc(COc4cccc(C(=O)O)c4)n(C)c3c2)c(F)c1 [Reference Example 9, 3-({6-[(3-Fluoro-5-methylpyridin-2-yl)oxy]-1-methyl-1H-benzimidazol-2-yl}methoxy)benzoic acid]
82	260000	CCc1cnc(Oc2ccc3nc(COc4cccc(C(=O)O)c4)n(C)c3c2)c(C)c1 [Reference Example 11, 3-({6-[(5-Ethyl-3-methylpyridin-2-yl)oxy]-1-methyl-1H-benzimidazol-2-yl}methoxy)benzoic acid]
83	71000	CCc1cc(C)cnc1Oc1ccc2nc(COc3cccc(C(=O)O)c3)n(C)c2c1 [Reference Example 12, 3-({6-[(3-Ethyl-5-methylpyridin-2-yl)oxy]-1-methyl-1H-benzimidazol-2-yl}methoxy)benzoic acid]
67	69000	COc1c(C)cnc(Oc2ccc3nc(COc4cccc(C(=O)O)c4)n(C)c3c2)c1C [Reference Example 14, 3-({6-[(4-Methoxy-3,5-dimethylpyridin-2-yl)oxy]-1-methyl-1H-benzimidazol-2-yl}methoxy)benzoic acid]
94	120000	Cc1cc(C)c(Oc2ccc3nc(COc4cccc(C(=O)O)c4)n(C)c3c2)nc1C [Reference Example 15, 3-({1-Methyl-6-[(3,5,6-trimethylpyridin-2-yl)oxy]-1H-benzimidazol-2-yl}methoxy)benzoic acid]
